Source: US20120142645A1, “NEUROACTIVE STEROID COMPOSITIONS AND METHODS OF USE FOR LOWERING CHOLESTEROL” (priority 2009, published 2012)
“And” between values parts separate entries of the source, which are not always exact repeats. Identical values can stand only once.

Test system: patients with schizophrenia or schizoaffective disorder
Experiment: Psychiatric rating scales (PANSS, CGI, Calgary, SAS, BAS, AIMS, Quality of Life); same trial
Assay type: in vivo, human
Set-up: CGI-S score / Calgary Depression Scale, difference PG vs placebo / Heinrich Carpenter subscore Interpersonal and social work, difference PG vs placebo / Heinrich Carpenter subscore Occupational role function, difference PG vs placebo / Heinrich Carpenter subscore Other residual symptoms, difference PG vs placebo: scale not given here
Conditions: for Heinrich Carpenter Quality of Life Scale, difference PG vs placebo: not significant (p=0.32); for PANSS General subscore / PANSS Negative symptoms subscore / PANSS Positive symptoms subscore / PANSS total score: mean; for CGI-I score: Week 8 (final), 2=much improved, 3=minimally improved, n = 9
Description: Study Design and Subjects. Disclosed herein is a placebo-controlled, double-blind, parallel group, randomized trial of adjunctive pregnenolone for the treatment of cognitive and negative symptoms in patients with schizophrenia or schizoaffective disorder. […] Patients received a total of 6 study visits, which took place every two weeks. […] The trial was conducted at a single site, the Durham Veterans Affairs Medical Center in Durham, N.C. The protocol was approved by the local institutional review board and conducted under FDA Investigational New Drug (IND) #71,768. The ClinicalTrials.gov number for this study is NCT00560937.
During the screening visit (Visit 1), patients received a physical exam, vital signs, and electrocardiogram (EKG), as well as baseline laboratory measures consisting of serum electrolytes, glucose, creatinine, blood urea nitrogen (chemistry 7 panel), liver function tests, complete blood count (CBC), urinalysis, urine toxicology test, thyroid stimulating hormone (TSH), and prolactin, and serum pregnancy test if female. These tests were also repeated at the completion of the study (Visit 6). In addition, patients received an interim EKG 4 weeks post-randomization, as well as a serum pregnancy test if female (Visit 4). Patients also received a chemistry 7 panel, CBC, and liver function tests at Visits 2, 3, 4, and 5 (i.e., at all study visits). Psychiatric symptoms were assessed at baseline using the Scale for the Assessment of Negative Symptoms (Andreasen, 1983), the Positive and Negative Symptom Scale (PANSS; Kay et al., 1987), the Calgary Depression Rating Scale (CDRS; Addington et al., 1990), the Clinical Global Impressions Improvement (CGI-I) and Severity (CGI-S) scales, the Barnes Akathisia Scale (BAS; Barnes, 1989), the Simpson Angus Scale for Extrapyramidal Symptoms (SAS; Simpson & Angus, 1970), the Quality of Life Scale (QOL; Heinrichs et al., 1984), and the Hillside Side Effects Scale. One research nurse with five years of experience in the conduction of schizophrenia clinical trials completed both psychiatric and cognitive assessments throughout the study, and was trained to one point of divergence on each PANSS item.

[1] = Difference in changes from Week 0-8
[2] = Difference in changes from Week 0-8, points
[3] = Difference in changes from Week 0-8, points, listed as pregnenolone

Structure (SMILES): CC(=O)[C@H]1CC[C@H]2[C@@H]3CC=C4C[C@@H](O)CC[C@]4(C)[C@H]3CC[C@]12C [PG, pregnenolone]
- CGI-S, change (Changes from Week 0-8): −0.1
- Calgary Depression Scale, change (Changes from Week 0-8, n = 7): −1.6
- AIMS, change (Changes from Week 0-8, n = 8): −1.0
- Barnes Akathisia Scale, change (Changes from Week 0-8, n = 8): −0.4
- Heinrich Carpenter Quality of Life Scale, change (Changes from Week 0-8, n = 8): 7.9
- Heinrich Carpenter subscore Interpersonal and social work, change (Changes from Week 0-8, n = 8): 5.4
- Heinrich Carpenter subscore Occupational role function, change (Changes from Week 0-8, n = 8): 0.9
- Heinrich Carpenter subscore Other residual symptoms, change (Changes from Week 0-8, n = 8): 1.6
- PANSS General, change (Changes from Week 0-8, n = 8): −4.5
- PANSS Negative symptoms, change (Changes from Week 0-8, n = 8): −2.8
- PANSS Positive symptoms, change (Changes from Week 0-8, n = 8): −2.6
- PANSS total, change (Changes from Week 0-8, n = 8): −9.9
- Simpson-Angus Scale, change (Changes from Week 0-8, n = 8): −0.1
- AIMS, difference PG vs placebo [1]: −0.6 ± 0.7
- Calgary Depression Scale, difference PG vs placebo [1]: 0.4 ± 1.6
- Heinrich Carpenter subscore Interpersonal and social work, difference PG vs placebo [1]: 3.6 ± 3.2
- Heinrich Carpenter subscore Occupational role function, difference PG vs placebo [1]: 0.8 ± 0.6
- Heinrich Carpenter subscore Other residual symptoms, difference PG vs placebo [1]: 0.9 ± 2.2
- PANSS General, difference PG vs placebo [1]: −1.3 ± 2.1
- PANSS Positive symptoms, difference PG vs placebo [1]: −1.6 ± 0.8
- Simpson-Angus Scale, difference PG vs placebo [1]: −0.2 ± 0.4
- PANSS Negative symptoms, difference PG vs placebo [2]: −1.5 ± 1.4
- PANSS Negative symptoms, difference PG vs placebo [3]: 1.53
- PANSS total, difference PG vs placebo (Difference in changes from Week 0-8, points, not significant (p=0.24)): −4.4 ± 3.6
- Heinrich Carpenter Quality of Life Scale, difference PG vs placebo [2]: 5.3 ± 5.1
- Heinrich Carpenter Quality of Life Scale, difference PG vs placebo [3]: 5.27±5.07 and 5.27
- AIMS score (Week 0 (baseline)): 1.6
- Barnes Akathisia Scale score (Week 0 (baseline)): 0.4
- CGI-S score (Week 0 (baseline)): 4.0
- Calgary Depression Scale score (Week 0 (baseline)): 2.4
- Heinrich Carpenter Quality of Life Scale score (Week 0 (baseline)): 47.5
- Heinrich Carpenter subscore Interpersonal and social work (Week 0 (baseline)): 17.9
- Heinrich Carpenter subscore Occupational role function (Week 0 (baseline)): 1.9
- Heinrich Carpenter subscore Other residual symptoms (Week 0 (baseline)): 27.8
- Simpson-Angus Scale score (Week 0 (baseline)): 1.0
- CGI-S score (Week 0 (baseline), listed as pregnenolone): 4.00±0.50
- PANSS General subscore (Week 0 (baseline)): 35.5
- PANSS Negative symptoms subscore (Week 0 (baseline)): 23.4
- PANSS Positive symptoms subscore (Week 0 (baseline)): 13.6
- PANSS total score (Week 0 (baseline)): 72.5
- AIMS score (Week 4): 0.9
- Barnes Akathisia Scale score (Week 4): 0.4
- Simpson-Angus Scale score (Week 4): 1.3
- PANSS General subscore (Week 4): 34.3
- PANSS Negative symptoms subscore (Week 4): 23.2
- PANSS Positive symptoms subscore (Week 4): 12.8
- PANSS total score (Week 4): 67.9
- AIMS score (Week 8): 0.6
- Barnes Akathisia Scale score (Week 8): 0.0
- Calgary Depression Scale score (Week 8): 0.9
- Heinrich Carpenter Quality of Life Scale score (Week 8): 55.4
- Heinrich Carpenter subscore Interpersonal and social work (Week 8): 23.3
- Heinrich Carpenter subscore Occupational role function (Week 8): 2.8
- Heinrich Carpenter subscore Other residual symptoms (Week 8): 29.4
- Simpson-Angus Scale score (Week 8): 0.9
- CGI-I score: 2.11
- CGI-I score (listed as pregnenolone): 2.11±0.33 and 2.11
- CGI-S score (Week 8 (post-treatment)): 3.9
- CGI-S score (Week 8 (post-treatment), listed as pregnenolone): 3.89±0.33
- PANSS General subscore (Week 8): 31.2
- PANSS Negative symptoms subscore (Week 8): 20.6
- PANSS Positive symptoms subscore (Week 8): 11.9
- PANSS total score (Week 8): 63.6
